Results reported in patent US10472341B2, “Bicyclic tetrahydrothiazepine derivatives useful for the treatment of neoplastic and/or infectious diseases” (APEIRON BIOLOGICS AG, priority 2015, dated 2019).
Where two headings read alike, the source gives them in different places.

Key:
Assay type in all cases: cell-based
[1] = test system: aCD3/aCD28-stimulated human CD4+-T-cells; assay: IL-2 production and activation markers in aCD3/aCD28 stimulated isolated human CD4+-T-cells; conditions: IL-2 production at 3 μM compound
In short: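 CD4+ T cells isolated from buffy-coat PBMCs by microbeads were plated in Xvivo medium (1.5*10^5 cells/well) and stimulated with anti-CD3/28 mAbs plus compound. IL-2 measured by ELISA in supernatants at 24 h or 48 h; CD25 and proliferation by flow cytometry, CD69 at 24 h. Activity classes based on IL-2 at 3 μM compound.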

CD4 T cells = assay: CD69 expression on aCD3/aCD28 stimulated isolated human CD4 T cells (flow cytometry); conditions: 24 h after TCR stimulation, read-out: Activity Class CD69 (CD4)
Description: (§1) Isolated T cells were plated in Xvivo medium at 1.5*10 ^5 cells per in 96 well culture plates and TCR-stimulated with anti-CD3/28 mAbs in the presence of compound as indicated. Cytokine production was determined at 24 h or 48 h following TCR stimulation in cell culture supernatants using commercially available ELISA kits (BD and eBioscience) as recommended by the manufacturer. T cell proliferation and CD25 expression (CD25-PC5 reagent purchased from Beckman Coulter) was determined by flow cytometry (Beckman-Coulter FC500) and analysed with Kaluza Software. For measurement of CD69 expression, isolated CD4 and CD8 T cells were plated in Xvivo medium at […] per in 96 well culture plates and TCR-stimulated with anti-CD3/28 mAbs in the presence of compound. CD69 expression was determined at 24 h following TCR stimulation by flow cytometry (CD4eF450, CD8APCeF780 and CD69-PC7 reagent purchased from eBioscience) and analysed with Kaluza Software.
(§2) For measurement of CD69 expression, isolated CD4 and CD8 T cells were plated in Xvivo medium at 80000 cells per in 96 well culture plates and TCR-stimulated with anti-CD3/28 mAbs in the presence of compound. CD69 expression was determined at 24 h following TCR stimulation by flow cytometry (CD4eF450, CD8APCeF780 and CD69-PC7 reagent purchased from eBioscience) and analysed with Kaluza Software.

CD8 T cells = assay: CD69 expression on aCD3/aCD28 stimulated isolated human CD8 T cells (flow cytometry); conditions: T-cell, 24 h after TCR stimulation, read-out: Activity Class CD69 (CD8)
Description: as §1, §2

[2] = test system: aCD3/aCD28-stimulated human PBMCs; assay: Cytokine production in aCD3/aCD28 stimulated human PBMCs; conditions: PBMC, 18 h
In short: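 Compound effects measured in buffy-coat PBMCs activated 18 h at 37° C by 1 μg/mL each of soluble anti-CD3 (OKT3) and anti-CD28 (28.2), 1e6 cells/mL. Cytokines in harvested supernatants read by MSD or HTRF.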

[3] = enhancement of IFN-γ production, read-out: Activity Class IFN-γ
[4] = enhancement of IL-2 production, read-out: Activity Class IL-2

| Structure (SMILES) | EC50 (CD4 T cells) | EC50 (CD8 T cells) | Activity Class CD4+ [1] | EC50 [2, 3] | EC50 [2, 4] |
| --- | --- | --- | --- | --- | --- |
| Cl.N[C@H]1CS(=O)(=O)c2cc(F)c(C(=O)NCc3ccc(F)cc3)cc2N(Cc2ccc(Cl)cc2)C1=O [Example 68, (3R)-3-amino-5-[(4-chlorophenyl)methyl]-8-fluoro-N-[(4-fluorophenyl)methyl]-1,1,4-trioxo-2,3,4,5-tetrahydro-1λ^6,5-benzothiazepine-7-carboxamide hydrochloride] | < 1580 nM | < 1580 nM | A (IL-2 production at 3 μM compound concentration >10 ng/mL) | < 1580 nM | < 1580 nM |
| CCCCNC(=O)c1cc2c(cc1F)S(=O)(=O)C[C@H](N)C(=O)N2Cc1ccc(Cl)cc1.Cl [Example 69, (3R)-3-amino-N-butyl-5-[(4-chlorophenyl)methyl]-8-fluoro-1,1,4-trioxo-2,3,4,5-tetrahydro-1λ^6,5-benzothiazepine-7-carboxamide hydrochloride] | < 1580 nM | < 1580 nM | A (IL-2 production at 3 μM compound concentration >10 ng/mL) | < 1580 nM | < 1580 nM |
| Cl.N[C@H]1CS(=O)(=O)c2cc(F)c(C(=O)NCC3CCOCC3)cc2N(Cc2ccc(Cl)cc2)C1=O [Example 71, (3R)-3-amino-5-[(4-chlorophenyl)methyl]-8-fluoro-N-(oxan-4-ylmethyl)-1,1,4-trioxo-2,3,4,5-tetrahydro-1λ^6,5-benzothiazepine-7-carboxamide hydrochloride] | < 1580 nM | < 1580 nM | B (IL-2 production at 3 μM compound concentration between 2-10 ng/mL) | < 1580 nM | < 1580 nM |
| Cl.N[C@H]1CS(=O)(=O)c2cc(F)c(C(=O)NCC3CCOCC3)cc2N(Cc2ccc(OC(F)(F)F)cc2)C1=O [Example 72, (3R)-3-amino-8-fluoro-N-(oxan-4-ylmethyl)-1,1,4-trioxo-5-{[4-(trifluoromethoxy)-phenyl]methyl}-2,3,4,5-tetrahydro-1λ^6,5-benzothiazepine-7-carboxamide hydrochloride] | < 1580 nM | 1580 to 5010 nM | A (IL-2 production at 3 μM compound concentration >10 ng/mL) | < 1580 nM | < 1580 nM |
| Cl.N[C@H]1CS(=O)(=O)c2cc(F)c(C(=O)NCCCC(F)(F)F)cc2N(Cc2ccc(OC(F)(F)F)cc2)C1=O [Example 73, (3R)-3-amino-8-fluoro-1,1,4-trioxo-N-(4,4,4-trifluorobutyl)-5-{[4-(trifluoromethoxy)-phenyl]methyl}-2,3,4,5-tetrahydro-1λ^6,5-benzothiazepine-7-carboxamide hydrochloride] | < 1580 nM | < 1580 nM | A (IL-2 production at 3 μM compound concentration >10 ng/mL) | < 1580 nM | < 1580 nM |
| Cl.N[C@H]1CS(=O)(=O)c2cc(F)c(C(=O)NC3CCC(F)(F)C3)cc2N(Cc2ccc(Cl)cc2)C1=O (stereo partly drawn) [Example 105, (3R)-3-amino-5-[(4-chlorophenyl)methyl]-N-(3,3-difluorocyclopentyl)-8-fluoro-1,1,4-trioxo-2,3,4,5-tetrahydro-1λ^6,5-benzothiazepine-7-carboxamide hydrochloride] | < 1580 nM | < 1580 nM | A (IL-2 production at 3 μM compound concentration >10 ng/mL) | < 1580 nM | < 1580 nM |
| N[C@H]1CS(=O)(=O)c2ccc(C(=O)NCCN3CCOCC3)cc2N(Cc2ccc(Cl)cc2)C1=O [Example 176, (3R)-3-amino-5-[(4-chlorophenyl)methyl]-N-[2-(morpholin-4-yl)ethyl]-1,1,4-trioxo-2,3,4,5-tetrahydro-1λ^6,5-benzothiazepine-7-carboxamide] | > 5010 nM | > 5010 nM | – | > 5010 nM | > 5010 nM |
| C#CCOc1ccc(CNC(=O)c2cc3c(cc2F)S(=O)(=O)C[C@H](N)C(=O)N3Cc2ccc(Cl)cc2)cc1 [Example 178, (3R)-3-amino-5-[(4-chlorophenyl)methyl]-8-fluoro-1,1,4-trioxo-N-{[4-(prop-2-yn-1-yloxy)phenyl]methyl}-2,3,4,5-tetrahydro-1λ^6,5-benzothiazepine-7-carboxamide] | < 1580 nM | < 1580 nM | – | < 1580 nM | < 1580 nM |

Now from value to compound, other results behind:

| EC50 (CD4 T cells) | EC50 (CD8 T cells) | Structure (SMILES) | Activity Class CD4+ [1] | EC50 [2, 3] | EC50 [2, 4] |
| --- | --- | --- | --- | --- | --- |
| < 1580 nM | 1580 to 5010 nM | N[C@H]1CS(=O)(=O)c2cc(Cl)c(C(=O)N[C@@H]3CC3(F)F)cc2N(Cc2ccc(Cl)cc2)C1=O [Example 175, (3R)-3-amino-8-chloro-5-[(4-chlorophenyl)methyl]-N-[(1R)-2,2-difluorocyclopropyl]-1,1,4-trioxo-2,3,4,5-tetrahydro-1λ^6,5-benzothiazepine-7-carboxamide] | – | 1580 to 5010 nM | > 5010 nM |
| < 1580 nM | < 1580 nM | N[C@H]1CS(=O)(=O)c2ccc(C(=O)N[C@@H]3CC3(F)F)cc2N(Cc2ccc(C(F)(F)F)cc2)C1=O [Example 179, (3R)-3-amino-N-[(1R)-2,2-difluorocyclopropyl]-1,1,4-trioxo-5-{[4-(trifluoromethyl)phenyl]methyl}-2,3,4,5-tetrahydro-1λ^6,5-benzothiazepine-7-carboxamide] | – | 1580 to 5010 nM | < 1580 nM |
| < 1580 nM | < 1580 nM | N[C@H]1CS(=O)(=O)c2ccc(C(=O)NC3CC3(F)F)cc2N(Cc2ccc(Br)cc2)C1=O (stereo partly drawn) [Example 180, (3R)-3-amino-5-[(4-bromophenyl)methyl]-N-(2,2-difluorocyclopropyl)-1,1,4-trioxo-2,3,4,5-tetrahydro-1λ^6,5-benzothiazepine-7-carboxamide] | – | < 1580 nM | < 1580 nM |
